From US9314498B2, “Bacteriocin derived from Lactobacillus rhamnosus” (priority 2011, dated 2016)
Where no end group is shown, it is not given here.

What was measured:
[1] = system: Candida albicans MYA274 strain; assay: Boiling experiment: antimicrobial activity (ATP) against Candida albicans MYA274; format: cell-based; settings: concluded from supernatant boiled at 100° C. for 20 minutes; peptides not directly used
Protocol: In Example 9, antimicrobial activity against the Candida albicans MYA274 strain was investigated. The Candida albicans MYA274 strain was precultured in Sabouraud dextrose broth (Difco) at 37° C. for 24 hours, and then washed twice with MQ water, followed by being prepared such that OD600 is 0.3 (1.0×10^7 cells/ml).
In Example 9, the bacteriocin Kog1 or Kog2, or the Lactobacillus rhamnosus KO1 strain or KO3 strain, was not directly used. Instead, a lactic acid bacterium medium containing the Lactobacillus rhamnosus KO3 strain, 8020 yogurt (liquid type), was used in the experiment More specifically, the 8020 yogurt (liquid type) was prepared by adding the Lactobacillus rhamnosus KO3 strain at a concentration of 1% and YF-L811 starter at a concentration of 1% to the 15% skim milk+3% glucose medium, and then performing culture at 35° C. for 2 days.
Such 8020 yogurt (liquid type) was centrifuged to obtain a supernatant from which the lactic acid bacterium was removed (hereinafter referred to as Supernatant B). In the experiment, Supernatant B and a sample prepared by boiling Supernatant B at 100° C. for 20 minutes (hereinafter referred to as Supernatant Boil) were used. […]
In order to study changes in the antimicrobial activity by boiling, the following 3 kinds of samples were placed in a 24-well plate, and the value of ATP (pmol/L) after 24 hours of incubation at 37° C. was measured. […]

[2] = system: Streptococcus mutans NCTC10449 strain; assay: Antimicrobial activity against Streptococcus mutans NCTC10449; format: cell-based; settings: 0 to 100 μM, FIG. 4
[3] = system: Candida albicans GDH18 strain; assay: Antimicrobial activity (CFU count, percentage of living cells) against Candida albicans GDH18; format: cell-based; settings: 37° C., 90 minutes, 1 mM phosphate buffer
Text: As the Candida, cariogenic bacteria and periodontal disease bacteria, the Candida albicans GDH18 strain, Streptococcus sobrinus B-13 strain, Streptococcus mutans NCTC10449 strain, Streptococcus mutans Ingbritt strain, Porphyromonas gingivalis Hudoi001 strain and Aggregatibacter actinomycetemcomitans Hudoe001 strain were used. The test strains were provided from Faculty of Dentistry, Hiroshima University, Japan, and Hiroshima University Dental Hospital.
(§1) The Candida albicans GDH18 strain was precultured using SD medium (Difco) at 37° C. for 24 hours under aerobic conditions. The Streptococcus sobrinus B-13 strain, Streptococcus mutans NCTC10449 strain and Streptococcus mutans Ingbritt strain were precultured using TSB medium (Difco) supplemented with 5% yeast extract (Difco) at 37° C. for 24 hours under aerobic conditions. The Porphyromonas gingivalis Hudoi001 strain and Aggregatibacter actinomycetemcomitans Hudoe001 strain were precultured using BHI medium (Difco) supplemented with hemin (5 mg/L) and vitamin K3 (1 mg/L) at 37° C. for 96 hours under anaerobic conditions with Anaero Pack System (Mitsubishi Gas Chemical Company, Inc.).
(§2) After the culture, the cells of the Candida, cariogenic bacteria and periodontal disease bacteria were collected by centrifugation at 1000×g, and washed twice with 1 mM phosphate buffer (pH 6.8). The cells were then suspended such that the final concentration was 1×10^8 cfu/ml or 1×10^7 cells/m. For suspension of the Streptococcus strains, ultrasonic treatment was also carried out.
(§3) Evaluation of the antimicrobial activity was carried out by the method by Edgerton and others (1998) with some modifications. With 20 mL of 1 mM phosphate buffer containing 0 to 25 μM Kog1 or Kog2 synthesized in Example 1, 20 μl of the suspension of the Candida albicans GDH18 strain cultured and prepared by the method described in the above Preparation Example was mixed, and the resulting mixture was incubated at 37° C. for 90 minutes with shaking. As a control, 20 ml of 1 mM phosphate buffer alone was used. The reaction was stopped by addition of 360 ml of YNB medium (Difco), and the number of colonies formed (colony forming units; CFUs) was counted together with the number of colonies in the control, to determine the percentage of living bacterial cells. That is, the equation of: (CFUs of suspension containing Kog1 or Kog2/CFU ml^−1 of control suspension)×100 was used to calculate the percentage.

[4] = system: Streptococcus sobrinus B-13 strain; assay: Antimicrobial activity against Streptococcus sobrinus B-13; format: cell-based; settings: tested 0 to 100 μM
Protocol: [The procedure below names another organism; the source lists this organism under the same test.] as §1, §2
as §3, with “percentage. […]” for “percentage.”

[5] = system: Porphyromonas gingivalis LPS (P.g-LPS) on RAW264.7 macrophage-like cells, TNF-α; assay: LPS inactivation: TNF-α secretion of RAW264.7 cells (ELISA); format: cell-based; settings: 100 ng/ml P.g-LPS preincubated 2 hours with 5, 10, 20 μM Kog1; as amount added increased
Protocol: (§4) As a medium, RPMI 1640 medium supplemented with 10% FBS (Fetal Bovine Serum) (Biological industries, Haemek, Israel), 1% antibiotic and 1% L-glutamine was used. In each well of a 24-well plate, 400 μl of the medium was placed, and 100,000 cells/well of mouse-derived RAW264.7 macrophage-like cells were inoculated thereto.
(§5) The bacteriocin Kog1 or Kog2, which was the same as in Example 1, was incubated in an Eppendorf tube under each of the following 4 conditions together with Porphyromonas gingivalis LPS (manufactured by InvivoGen) (hereinafter referred to as P.g-LPS) and the same medium as described above, at 37° C. under a gas phase of 5% CO2 for 2 hours: (1) 100 ng/ml P.g-LPS positive control; (2) 100 ng/ml P.g-LPS+5 μM Kog1 or Kog2; (3) 100 ng/ml P.g-LPS+10 μM Kog1 or Kog2; (4) 100 ng/ml P.g-LPS+20 μM Kog1 or Kog2.
(§6) The above-described medium placed in each well of the 24-well plate was removed using a pipetteman, and the medium in the Eppendorf tube for each of the 4 conditions described above was placed in the plate, followed by culturing the cells in the well plate at 37° C. under a gas phase of 5% CO2 for 12 hours. Thereafter, the culture supernatant was collected, and the amount of a chemokine ccl2 or the amount of a cytokine TNF-α secreted into the medium was quantified by the ELISA method by measuring the absorbance at 450 nm using a microplate reader. Since both ccl2 and TNF-α are involved in formation of inflammation, analysis of the relationship between the endotoxin LPS and the bacteriocins Kog1 and Kog2 is possible.

[6] = system: Porphyromonas gingivalis Hudoi001 strain; assay: Antimicrobial activity against Porphyromonas gingivalis Hudoi001; format: cell-based; settings: not shown in the figures
Protocol: as §1, §2
That is, it is assumed that, in Examples described in Patent Literature 1, the Lactobacillus rhamnosus KO3 strain expressed Kog1 and Kog2, and the expressed Kog1 and Kog2 exerted antimicrobial activity against the Porphyromonas gingivalis Hudoi001 strain. […]

[7] = system: Porphyromonas gingivalis LPS (P.g-LPS) on RAW264.7 macrophage-like cells, ccl2; assay: LPS inactivation: ccl2 secretion of RAW264.7 cells (ELISA); format: cell-based, mouse; settings: 100 ng/ml P.g-LPS preincubated 2 hours with 5, 10, 20 μM Kog1; as amount added increased
Protocol: as §4, §5, §6

[8] = Measurement of the isoelectric point of the synthesized peptides; format: physicochemical; settings: synthesized peptide
Text: Among antimicrobial peptides, hBD2 (human P-defensin-2 (see Eur J., 2002, Oral Sci. (109), 121-124)) is well known as a basic antimicrobial peptide, and has an isoelectric point of about 10. However, the isoelectric points of Kog1 and Kog2 of the embodiment 2 were higher than the isoelectric point of hBD2, and more similar to the isoelectric points of antimicrobial peptides derived from mammals. Thus, Kog1 and Kog2 were confirmed to have less cytotoxicity.

[9] = system: Streptococcus mutans Ingbritt strain; assay: Antimicrobial activity against Streptococcus mutans Ingbritt; format: cell-based; settings: 0 to 100 μM, FIG. 5
[10] = system: Aggregatibacter actinomycetemcomitans Hudoe001 strain; assay: Antimicrobial activity against Aggregatibacter actinomycetemcomitans Hudoe001; format: cell-based; settings: tested 0 to 50 μM
[11] = well known basic antimicrobial peptide, literature; cited from earlier work

Kog1: peptide having the amino acid sequence shown in SEQ ID NO: 1, bacteriocin of Lactobacillus rhamnosus, synthesized by the tea-bag method (MAKARPSRPRPLTLRSLTAPAHAHKKWASRWILSMRLARVFGIEKPHG; listed as Lactobacillus rhamnosus)
heat resistance (antimicrobial activity after heating) [1]: still maintain antimicrobial activity after heating
antimicrobial activity compared to the other antimicrobial peptides (hBD2, lysozyme) [2]: capable of killing a larger amount of Streptococcus mutans even at relatively low peptide concentration
peptide concentration at which 100% of the strain was killed [3]: 0.39 µM
peptide concentration at which 100% of the strain was killed [4]: 1.56 µM
amount of the cytokine TNF-α secreted [5]: decreased
antimicrobial activity [6]: capable of exerting antimicrobial activity
amount of the chemokine ccl2 secreted [7]: decreased
isoelectric point (pl) [8]: 12.90
antimicrobial activity compared to the other antimicrobial peptides (hBD2, lysozyme) [9]: capable of killing a larger amount of Streptococcus mutans even at relatively low peptide concentration
peptide concentration at which 100% of the strain was killed [10]: 3.13 µM

histatin 5: antimicrobial peptide derived from human saliva (amino acid sequence shown in SEQ ID NO: 6) (DSHEKRHHGYKRKFHEKHHSHRGY; Antimicrobial peptide)
peptide concentration at which 100% of the strain was killed [3]: 100 µM

lactoferricin B: antimicrobial peptide derived from milk (amino acid sequence shown in SEQ ID NO: 5) (FKCRRWQWRMKKLGAPSITCVRRAF; Antimicrobial peptide)
peptide concentration at which 100% of the strain was killed [3]: 5 µM

hBD2: human β-defensin-2, well known basic antimicrobial peptide (GIGDPVTCLKSGAICHPVFCPRRYKQIGTCGLPGTKCCKKP; ends and bridges not checked; cysteine pairing not given here; UniProt O15263 24-64, looked up) [reference compound]
peptide concentration at which 100% of the strain was killed [4]: 3.125 µM
isoelectric point [11]: about 10

C[C@@H]1[C@H](O)[C@@H](C)/C=C/C=C/C=C/C=C/C=C/C=C/C=C/[C@H](O[C@@H]2O[C@H](C)[C@@H](O)[C@H](N)[C@@H]2O)C[C@@H]2O[C@](O)(C[C@@H](O)C[C@@H](O)[C@H](O)CC[C@@H](O)C[C@@H](O)CC(=O)O[C@H]1C)C[C@H](O)[C@H]2C(=O)O [amphotericin B]
peptide concentration at which 100% of the strain was killed [3]: 5 µM

JH8194: antimicrobial peptide of JP 3472821 B (amino acid sequence shown in SEQ ID NO: 7) (KRLFRRWQWRMKKY; Antimicrobial peptide)
peptide concentration at which 100% of the strain was killed [3]: 2.5 µM
